# Data reported in patent US9297017B2, “Methods and compositions for targeted protein degradation” (University of Washington, priority 2010, dated 2016).
# pKd: −log10 of the molar value. “And” between values parts separate entries of the source, which are not always exact repeats. Equal values may be shown once. Read-outs that look alike come from different tables or passages of the source.
# Tests used:
# COI1-JAZ6 complex [1] = molecular target: T1, COI1-JAZ6 complex (Arabidopsis thaliana, UniProt O04197+Q9C9E3); experiment: Saturation radioligand binding of 3H-coronatine to COI1/ASK1 in the presence of JAZ6
# T1 construct: Full-length Arabidopsis thaliana COI1 and ASK1 were co-expressed; Full-length JAZ substrate proteins were expressed as 6×His-fusion proteins in Escherichia coli; GST (cleaved yes); 6xHis; made in house; host or cells: Hi5 insect cells (COI1/ASK1); Escherichia coli (JAZ6)
# T1 sequence (O04197 1-592): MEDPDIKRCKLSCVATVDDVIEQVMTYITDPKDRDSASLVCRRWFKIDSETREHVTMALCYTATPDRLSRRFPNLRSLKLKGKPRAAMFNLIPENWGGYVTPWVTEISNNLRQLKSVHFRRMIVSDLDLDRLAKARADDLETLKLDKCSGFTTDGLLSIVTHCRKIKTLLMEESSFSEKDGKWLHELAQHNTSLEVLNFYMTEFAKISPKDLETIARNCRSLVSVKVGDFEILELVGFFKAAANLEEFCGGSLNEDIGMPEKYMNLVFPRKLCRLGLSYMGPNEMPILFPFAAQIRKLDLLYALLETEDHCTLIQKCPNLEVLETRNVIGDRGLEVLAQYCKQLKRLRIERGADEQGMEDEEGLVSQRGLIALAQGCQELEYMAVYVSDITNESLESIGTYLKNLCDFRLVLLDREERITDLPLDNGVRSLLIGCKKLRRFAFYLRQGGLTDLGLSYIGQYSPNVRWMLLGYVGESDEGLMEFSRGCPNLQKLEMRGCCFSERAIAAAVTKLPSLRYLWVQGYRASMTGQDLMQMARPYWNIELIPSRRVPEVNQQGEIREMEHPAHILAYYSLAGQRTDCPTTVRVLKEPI
# T1 sequence (Q39255 1-160 partner): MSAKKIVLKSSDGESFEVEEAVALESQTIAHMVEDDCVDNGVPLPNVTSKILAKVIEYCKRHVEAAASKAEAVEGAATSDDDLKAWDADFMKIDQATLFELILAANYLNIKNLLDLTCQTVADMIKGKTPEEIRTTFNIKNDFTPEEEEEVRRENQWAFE
# T1 sequence (Q9C9E3 1-269): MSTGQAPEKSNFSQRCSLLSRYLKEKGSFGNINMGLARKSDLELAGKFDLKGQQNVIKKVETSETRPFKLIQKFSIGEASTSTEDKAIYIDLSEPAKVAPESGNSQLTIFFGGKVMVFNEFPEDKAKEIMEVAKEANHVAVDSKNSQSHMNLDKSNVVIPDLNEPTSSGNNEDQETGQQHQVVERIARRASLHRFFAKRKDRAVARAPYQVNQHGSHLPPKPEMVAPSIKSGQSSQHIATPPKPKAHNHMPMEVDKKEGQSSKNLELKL
# Description: (§1) (^3H)-labeled coronatine was synthesized by Amersham. Full-length Arabidopsis thaliana COI1 and ASK1 were co-expressed as a glutathione S-transferase (GST) fusion protein and an untagged protein, respectively, in Hi5 suspension insect cells. The COI1/ASK1 complex was isolated from the soluble cell lysate by glutathione affinity chromatography. After on-column tag cleavage by tobacco etch virus protease, the complex was further purified by anion exchange and gel filtration chromatography and concentrated by ultrafiltration to 12-18 mg ml^−1. Full-length JAZ substrate proteins were expressed as 6×His-fusion proteins in Escherichia coli and purified on Ni-NTA resin with subsequent dialysis into 20 mM Tris-HCl, pH 8.0, 200 mM NaCl, and 10% glycerol.
# (§2) Radioligand binding was assayed on purified proteins, with 2 mg COI1/ASK1 complex and JAZ proteins at a 1:3 molar ratio. Reactions were prepared in […] final volume and in a binding buffer containing 20 mM Tris-HCl 200 mM NaCl, and 10% glycerol. Saturation binding experiments were conducted with serial dilutions of 3H-coronatine in binding buffer. Nonspecific binding was determined in the presence of […] coronatine. Competition binding experiments were conducted with serial dilutions of JA-Ile in the presence of 100 nM ^3H coronatine with nonspecific binding determined in the presence of […] coronatine. Total binding was determined in the presence of vehicle only. Two-point binding experiments were performed in the presence of 100 nM or 300 nM ^3H-coronatine with nonspecific binding determined in the presence of […] coronatine. Following incubation with mixing at 4° C., all samples were collected with a cell harvester (Brandel, Gaithersburg, Md.) on polyethyleneimine (Sigma)-treated filters. […] Saturation binding experiments were analyzed by nonlinear regression, competition binding experiments by nonlinear regression with Ki calculation as described previously (Cheng 1973), and concentration-response data by sigmoidal dose-response curve fitting, all using GraphPad Prism version 4.00 for MacOSX.
# COI1-JAZ6 complex [2] = molecular target: T1, COI1-JAZ6 complex; experiment: Competition binding with 100 nM 3H-coronatine; settings: relative to (3R,7S)-JA-Ile
# Description: as §1, §2
# COI1/JAZ1 co-receptor = molecular target: T2, COI1/JAZ1 co-receptor (Arabidopsis thaliana, UniProt O04197+Q9LMA8); experiment: Ligand-binding based reconstitution assay (inositol phosphate rescue) with dialyzed COI1/ASK1 and JAZ1
# T2 construct: Full-length Arabidopsis thaliana COI1 and ASK1 were co-expressed; Full-length JAZ substrate proteins were expressed as 6×His-fusion proteins in Escherichia coli; GST (cleaved yes); 6xHis; made in house; host or cells: Hi5 insect cells (COI1/ASK1); Escherichia coli (JAZ1)
# T2 sequence (O04197 1-592): T1 sequence (O04197 1-592)
# T2 sequence (Q39255 1-160 partner): T1 sequence (Q39255 1-160 partner)
# T2 sequence (Q9LMA8 1-253): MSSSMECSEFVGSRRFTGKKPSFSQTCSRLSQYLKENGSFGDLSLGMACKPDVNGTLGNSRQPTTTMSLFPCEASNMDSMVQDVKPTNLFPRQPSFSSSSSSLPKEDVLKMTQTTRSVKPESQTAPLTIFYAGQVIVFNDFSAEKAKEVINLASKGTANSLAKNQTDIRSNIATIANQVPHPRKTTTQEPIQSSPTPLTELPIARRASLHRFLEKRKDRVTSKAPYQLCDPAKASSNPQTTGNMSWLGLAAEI
# Method: Radioligand binding was assayed on purified proteins, with 2 mg COI1/ASK1 complex and JAZ proteins at a 1:3 molar ratio. Reactions were prepared in […] final volume and in a binding buffer containing 20 mM Tris-HCl 200 mM NaCl, and 10% glycerol. Saturation binding experiments were conducted with serial dilutions of 3H-coronatine in binding buffer. Nonspecific binding was determined in the presence of […] coronatine. Competition binding experiments were conducted with serial dilutions of JA-Ile in the presence of 100 nM ^3H coronatine with nonspecific binding determined in the presence of […] coronatine. Total binding was determined in the presence of vehicle only. Two-point binding experiments were performed in the presence of 100 nM or 300 nM ^3H-coronatine with nonspecific binding determined in the presence of […] coronatine. Following incubation with mixing at 4° C., all samples were collected with a cell harvester (Brandel, Gaithersburg, Md.) on polyethyleneimine (Sigma)-treated filters. Samples were incubated in liquid scintillation fluid for >1 hour before counting with a Packard Tri-Carb 2200 CA liquid scintillation analyzer (Packard Instrument Co.). Saturation binding experiments were analyzed by nonlinear regression, competition binding experiments by nonlinear regression with Ki calculation as described previously (Cheng 1973), and concentration-response data by sigmoidal dose-response curve fitting, all using GraphPad Prism version 4.00 for MacOSX.
# To assess the functional role of Ins(1,2,4,5,6)P5 in the COI1/JAZ1 co-receptor, a protocol was developed for stripping the co-purified InsP5 from COI1 without denaturing the protein. Briefly, proteins were mixed with 10% glycerol and incubated in 2 M ammonium phosphate, 100 mM Bis-Tris propane, pH 7.0, 200 mM NaCl, and 10% glycerol at 4° C. for >24 hours with a minimum of 3× buffer changes at 100× sample volume. Samples were then transferred to 20 mM Tris-HCl, pH 8.0, 200 mM NaCl, and 10% glycerol at 4° C. for >24 hours with a minimum of three buffer changes at 100× sample volume. Inositol phosphate rescue experiments were conducted according to the radioligand binding assays described above in the presence of 300 nM ^3H-coronatine with nonspecific binding determined in the presence of 300 μM coronatine.
# The resulting COI1/ASK1 complex was tested in a ligand-binding based reconstitution assay. […] From this reconstitution result, it was concluded that Ins(1,2,4,5,6)P5 binding is crucial for the jasmonate coreceptor to perceive the hormone with high sensitivity.
structure (smiles),measurement,setting,value
CC[C@H]1C=C(C(=O)N[C@@]2(C(=O)O)C[C@@H]2CC)[C@H]2CCC(=O)[C@H]2C1 [coronatine],Binding affinity for COI1/JAZ6 complex,COI1-JAZ6 complex [1],high affinity
same,Concentration at which binding reached the level of saturation,COI1-JAZ6 complex [1]; COI1/JAZ6 complex,300 nM
same,pKd,"COI1-JAZ6 complex [1]; COI1/JAZ6 complex, listed as 3H-coronatine",7.32 and 7.17
same,"Affinity of coronatine over (3R,7S)-JA-Ile in binding assays",COI1-JAZ6 complex [2],approximately tenfold
same,pKd,"COI1/JAZ1 co-receptor; 1 μM Ins(1,2,4,5,6)P5, read-out: Kd, saturation binding of 3H-coronatine to dialyzed COI1 in the presence of InsP5",7.52
same,pKd,"COI1/JAZ1 co-receptor; 1 μM InsP6, read-out: Kd, saturation binding of 3H-coronatine to dialyzed COI1 in the presence of InsP6",7.43
